Experimental data reported in ChEMBL document CHEMBL4002640, “Discovery of MK-1832, a Kv1.5 inhibitor with improved selectivity and pharmacokinetics” (Bioorg Med Chem Lett, 2017).
One block for each compound: values may come before it. Calls of active or inactive are those of the source.

Columns and labels:
Homo sapiens = species: Homo sapiens; test: Substrate activity at human P-gp assessed as efflux ratio
[1] = target: T1, Voltage-gated inwardly rectifying potassium channel KCNH2 (Homo sapiens, UniProt Q12809); test: Displacement of [3H]-MK499 from human ERG IKr channel expressed in HEK293 cell membranes
KCNQ1/KCNE1 (IKs) [2] = target: T2, KCNQ1/KCNE1 (IKs) (Homo sapiens, UniProt P15382+P51787); test: Inhibition of human KCNQ1/KCNE1 expressed in HEK293 cells assessed as reduction in slowly activating delayed rectifier cardiac potassium current at 10 uM by patch clamp electrophysiology method; format: cell-based; conditions: HEK293 cells expressing human KCNQ1/KCNE1
[3] = target: T3, Potassium voltage-gated channel subfamily A member 5 (Homo sapiens, UniProt P22460); test: Inhibition of Kv1.5 (unknown origin)
[4] = Metabolic stability in human hepatocytes up to 3 hrs by mass spectrometry; format: ADME, cell-based, Hepatocyte
[5] = Drug metabolism in human hepatocytes assessed as oxidation of the ethane at the center up to 3 hrs by mass spectrometry; format: ADME, cell-based, Hepatocyte
[6] = Drug metabolism in human hepatocytes assessed as oxidation of the A/B ring nitrogens up to 3 hrs by mass spectrometry; format: ADME, cell-based, Hepatocyte
[7] = target: Voltage-gated potassium channel, IKs; KCNQ1(Kv7.1)/KCNE1(MinK) (Homo sapiens, UniProt P15382+P51787); test: Inhibition of human KCNQ1/KCNE1 expressed in HEK293 cells assessed as reduction in slowly activating delayed rectifier cardiac potassium current by patch clamp electrophysiology method; format: cell-based
Canis familiaris [8] = test: Anti-atrial fibrillation activity in iv dosed anesthetized Mongrel dog assessed as increase in atrial refractory period at 400 ms of basic cycle length administered as 60 mins infusion measured up to 60 mins by electrophysiology method; format: functional, Canis lupus familiaris
[9] = target: Sodium channel protein type 5 subunit alpha (Homo sapiens, UniProt Q14524); test: Inhibition of SCN5a (unknown origin) assessed as reduction in sodium current at 10 uM by voltage/ion probe reader method
[10] = target: T3, Potassium voltage-gated channel subfamily A member 5; test: Inhibition of Kv1.5 mediated ultra-rapid delayed rectifier current Ikur in human atrial myocytes by voltage-patch clamp electrophysiology method; format: cell-based
[11] = target: T4, A-type voltage-gated potassium channel KCND3 (Homo sapiens, UniProt Q9UK17); test: Inhibition of Kv4.3 (unknown origin) assessed as reduction in transient outward potassium current by high throughput clamp method
T4 sequence (Q9UK17 whole entry): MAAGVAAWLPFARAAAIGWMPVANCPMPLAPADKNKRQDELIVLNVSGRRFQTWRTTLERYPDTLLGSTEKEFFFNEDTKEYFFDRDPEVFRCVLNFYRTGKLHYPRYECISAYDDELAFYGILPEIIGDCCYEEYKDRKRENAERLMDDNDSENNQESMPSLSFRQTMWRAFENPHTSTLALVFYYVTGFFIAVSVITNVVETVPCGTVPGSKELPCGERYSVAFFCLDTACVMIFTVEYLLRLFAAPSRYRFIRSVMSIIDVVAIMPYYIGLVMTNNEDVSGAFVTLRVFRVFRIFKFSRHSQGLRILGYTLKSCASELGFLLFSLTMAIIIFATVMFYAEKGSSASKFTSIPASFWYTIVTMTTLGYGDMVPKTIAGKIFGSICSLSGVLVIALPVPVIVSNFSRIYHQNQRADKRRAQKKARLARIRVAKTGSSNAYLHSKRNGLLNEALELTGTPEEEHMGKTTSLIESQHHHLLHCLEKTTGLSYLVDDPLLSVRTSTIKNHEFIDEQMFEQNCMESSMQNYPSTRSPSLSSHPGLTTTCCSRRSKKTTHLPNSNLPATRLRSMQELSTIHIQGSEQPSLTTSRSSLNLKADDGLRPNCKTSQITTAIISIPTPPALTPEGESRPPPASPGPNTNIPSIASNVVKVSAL

[12] = target: T1, Voltage-gated inwardly rectifying potassium channel KCNH2; test: Inhibition of human ERG expressed in CHOK1 cells assessed as reduction in rapidly activating delayed rectifier cardiac potassium current by whole-cell voltage-patch clamp assay; format: cell-based
Canis familiaris [13] = test: Effect on ventricular refractory period in iv dosed anesthetized Mongrel dog assessed as threshold change in ventricular refractory period at 400 ms of basic cycle length administered as 60 mins infusion measured up to 60 mins by electrophysiology method; format: ADME, organism-based, Canis lupus familiaris; conditions: in vivo, 1 h
Canis familiaris [14] = test: Selectivity index, ratio of compound effect for anti-atrial fibrillation activity in iv dosed anesthetized Mongrel dog assessed as increase in atrial refractory period to compound effect on ventricular refractory period in iv dosed anesthetized Mongrel dog; design: species or system Canis lupus familiaris
[15] = Selectivity index, ratio of IC50 for human KCNQ1/KCNE1 IKs channel expressed in HEK293 cells to IC50 for Kv1.5 IKur channel in human atrial myocytes
[16] = Protein binding in rat plasma; format: ADME, cell-free; conditions: read-out: PPB (converted)
[17] = Clearance in rat; format: ADME; conditions: in vivo
Canis familiaris [18] = test: Toxicity in anesthetized Mongrel dog assessed as effect on heart rate at 0.3 to 100 ug/kg/min, iv administered as 60 mins infusion measured up to 60 mins by electrophysiology method; format: organism-based, Canis lupus familiaris; conditions: in vivo, 1 h
Canis familiaris [19] = test: Toxicity in anesthetized Mongrel dog assessed as effect on mean arterial pressure at 0.3 to 100 ug/kg/min, iv administered as 60 mins infusion measured up to 60 mins by electrophysiology method; format: organism-based, Canis lupus familiaris; conditions: in vivo, 1 h
[20] = Oral bioavailability in rhesus monkey; format: ADME, organism-based, Macaca mulatta; conditions: in vivo
[21] = Oral bioavailability in rat; format: ADME, organism-based; conditions: in vivo
[22] = Oral bioavailability in dog; format: ADME, organism-based, Canis lupus familiaris; conditions: in vivo
Canis familiaris [23] = test: Toxicity in anesthetized Mongrel dog assessed as effect on PR interval at 0.3 to 100 ug/kg/min, iv administered as 60 mins infusion measured up to 60 mins by electrophysiology method; format: organism-based, Canis lupus familiaris; conditions: in vivo, 1 h
[24] = Protein binding in rhesus monkey plasma; format: ADME, cell-free, Macaca mulatta; conditions: read-out: PPB (converted)
[25] = Volume of distribution at steady state in dog; format: ADME, Canis lupus familiaris; conditions: in vivo, read-out: Vdss
[26] = Clearance in rhesus monkey; format: ADME, Macaca mulatta; conditions: in vivo
[27] = Volume of distribution at steady state in rhesus monkey; format: ADME, Macaca mulatta; conditions: in vivo, read-out: Vdss
[28] = Terminal half-life in rhesus monkey; format: ADME, Macaca mulatta; conditions: in vivo, read-out: beta t1/2 (converted)
[29] = Clearance in dog; format: ADME, Canis lupus familiaris; conditions: in vivo
Canis familiaris [30] = test: Anti-atrial fibrillation activity in anesthetized Mongrel dog assessed as increase in atrial refractory period at 400 ms of basic cycle length at 0.3 to 100 ug/kg/min, iv administered as 60 mins infusion measured up to 60 mins by electrophysiology method; format: functional, organism-based; conditions: Canis lupus familiaris
KCNQ1/KCNE1 (IKs) [31] = target: T2, KCNQ1/KCNE1 (IKs); test: Inhibition of human KCNQ1/KCNE1 expressed in HEK293 cells assessed as reduction in slowly activating delayed rectifier cardiac potassium current at 30 uM by patch clamp electrophysiology method; format: cell-based; conditions: HEK293 cells expressing human KCNQ1/KCNE1
[32] = Terminal half-life in dog; format: ADME, Canis lupus familiaris; conditions: in vivo, read-out: beta t1/2 (converted)
[33] = Volume of distribution at steady state in rat; format: ADME; conditions: in vivo, read-out: Vdss
Canis familiaris [34] = test: Toxicity in anesthetized Mongrel dog assessed as effect on QRS interval at 0.3 to 100 ug/kg/min, iv administered as 60 mins infusion measured up to 60 mins by electrophysiology method; format: organism-based, Canis lupus familiaris; conditions: in vivo, 1 h
Canis familiaris [35] = test: Toxicity in anesthetized Mongrel dog assessed as effect on ECG at 0.3 to 100 ug/kg/min, iv administered as 60 mins infusion measured up to 60 mins by electrophysiology method; format: organism-based, Canis lupus familiaris; conditions: in vivo, 1 h
Canis familiaris [36] = test: Toxicity in anesthetized Mongrel dog assessed as effect on ventricular refractory period at 0.3 to 100 ug/kg/min, iv administered as 60 mins infusion measured up to 60 mins by electrophysiology method; format: organism-based, Canis lupus familiaris; conditions: in vivo, 1 h
Canis familiaris [37] = test: Toxicity in anesthetized Mongrel dog assessed as effect on QTc interval at 0.3 to 100 ug/kg/min, iv administered as 60 mins infusion measured up to 60 mins by electrophysiology method; format: organism-based, Canis lupus familiaris; conditions: in vivo, 1 h
[38] = Protein binding in dog plasma; format: ADME, cell-free, Canis lupus familiaris; conditions: read-out: PPB (converted)
[39] = Terminal half-life in rat; format: ADME; conditions: in vivo, read-out: beta t1/2 (converted)

T1 sequence (Q12809 whole entry): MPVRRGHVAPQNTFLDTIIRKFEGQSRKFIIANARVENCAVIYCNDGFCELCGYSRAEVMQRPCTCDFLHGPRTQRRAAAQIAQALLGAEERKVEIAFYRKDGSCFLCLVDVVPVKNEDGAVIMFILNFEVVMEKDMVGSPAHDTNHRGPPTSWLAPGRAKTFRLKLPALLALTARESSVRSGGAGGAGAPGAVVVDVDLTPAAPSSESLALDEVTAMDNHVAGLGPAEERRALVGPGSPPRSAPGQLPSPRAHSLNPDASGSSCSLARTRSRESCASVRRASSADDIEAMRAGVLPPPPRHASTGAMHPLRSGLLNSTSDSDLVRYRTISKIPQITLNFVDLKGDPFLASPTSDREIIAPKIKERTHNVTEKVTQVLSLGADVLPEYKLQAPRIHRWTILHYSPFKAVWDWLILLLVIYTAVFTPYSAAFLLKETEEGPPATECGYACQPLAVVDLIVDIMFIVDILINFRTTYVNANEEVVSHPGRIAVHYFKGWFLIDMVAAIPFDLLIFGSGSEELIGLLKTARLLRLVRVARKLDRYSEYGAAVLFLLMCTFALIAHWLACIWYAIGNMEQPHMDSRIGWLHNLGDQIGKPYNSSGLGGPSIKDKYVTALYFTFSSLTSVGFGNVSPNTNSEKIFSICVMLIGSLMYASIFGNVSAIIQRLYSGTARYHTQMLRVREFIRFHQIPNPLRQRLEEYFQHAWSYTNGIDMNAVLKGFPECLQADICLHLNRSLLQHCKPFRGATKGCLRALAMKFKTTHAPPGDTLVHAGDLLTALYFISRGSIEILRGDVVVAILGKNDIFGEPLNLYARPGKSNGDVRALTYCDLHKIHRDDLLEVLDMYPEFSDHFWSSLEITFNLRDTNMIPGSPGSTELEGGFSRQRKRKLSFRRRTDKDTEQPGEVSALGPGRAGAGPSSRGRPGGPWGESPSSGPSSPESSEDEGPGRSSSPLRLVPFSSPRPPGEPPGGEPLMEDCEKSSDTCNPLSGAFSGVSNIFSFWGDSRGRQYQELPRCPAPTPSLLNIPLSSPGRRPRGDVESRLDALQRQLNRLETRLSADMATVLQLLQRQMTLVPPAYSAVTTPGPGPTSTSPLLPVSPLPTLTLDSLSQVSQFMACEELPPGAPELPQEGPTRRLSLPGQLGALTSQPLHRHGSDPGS
T3 sequence (P22460 whole entry): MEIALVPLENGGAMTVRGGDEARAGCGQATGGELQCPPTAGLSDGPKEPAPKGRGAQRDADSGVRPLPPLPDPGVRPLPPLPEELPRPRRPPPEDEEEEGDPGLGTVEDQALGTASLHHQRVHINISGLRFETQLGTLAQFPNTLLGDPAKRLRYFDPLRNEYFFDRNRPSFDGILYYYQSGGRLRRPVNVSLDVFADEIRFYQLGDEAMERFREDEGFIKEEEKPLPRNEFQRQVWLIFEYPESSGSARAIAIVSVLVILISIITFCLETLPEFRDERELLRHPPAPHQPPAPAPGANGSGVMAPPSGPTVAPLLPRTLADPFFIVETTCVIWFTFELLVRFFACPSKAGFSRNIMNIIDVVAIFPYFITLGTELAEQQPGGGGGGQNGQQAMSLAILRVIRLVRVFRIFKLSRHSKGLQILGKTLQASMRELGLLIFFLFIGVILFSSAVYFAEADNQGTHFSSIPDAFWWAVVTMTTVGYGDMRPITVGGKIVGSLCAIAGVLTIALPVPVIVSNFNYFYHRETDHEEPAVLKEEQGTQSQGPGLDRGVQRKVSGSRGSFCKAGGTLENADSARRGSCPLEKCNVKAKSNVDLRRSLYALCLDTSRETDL
T2 sequence (P51787 whole entry): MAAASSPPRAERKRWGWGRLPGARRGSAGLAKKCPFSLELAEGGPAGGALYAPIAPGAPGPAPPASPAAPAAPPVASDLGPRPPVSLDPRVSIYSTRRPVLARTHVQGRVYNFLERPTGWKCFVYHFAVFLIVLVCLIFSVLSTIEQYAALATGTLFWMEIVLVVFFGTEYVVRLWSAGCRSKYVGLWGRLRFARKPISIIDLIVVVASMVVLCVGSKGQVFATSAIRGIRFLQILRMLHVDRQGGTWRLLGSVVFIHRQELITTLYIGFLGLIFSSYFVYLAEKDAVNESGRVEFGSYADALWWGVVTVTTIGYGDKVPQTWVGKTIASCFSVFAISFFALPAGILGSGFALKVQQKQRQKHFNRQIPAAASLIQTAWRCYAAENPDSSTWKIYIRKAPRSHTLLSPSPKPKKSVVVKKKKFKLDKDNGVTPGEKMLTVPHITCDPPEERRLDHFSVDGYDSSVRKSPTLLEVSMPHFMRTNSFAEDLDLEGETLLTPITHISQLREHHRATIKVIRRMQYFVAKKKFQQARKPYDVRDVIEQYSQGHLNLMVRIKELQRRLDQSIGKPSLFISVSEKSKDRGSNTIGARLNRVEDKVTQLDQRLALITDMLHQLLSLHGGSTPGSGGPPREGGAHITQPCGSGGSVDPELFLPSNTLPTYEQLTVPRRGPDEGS
Sequence of Sodium channel protein type 5 subunit alpha (Q14524 whole entry): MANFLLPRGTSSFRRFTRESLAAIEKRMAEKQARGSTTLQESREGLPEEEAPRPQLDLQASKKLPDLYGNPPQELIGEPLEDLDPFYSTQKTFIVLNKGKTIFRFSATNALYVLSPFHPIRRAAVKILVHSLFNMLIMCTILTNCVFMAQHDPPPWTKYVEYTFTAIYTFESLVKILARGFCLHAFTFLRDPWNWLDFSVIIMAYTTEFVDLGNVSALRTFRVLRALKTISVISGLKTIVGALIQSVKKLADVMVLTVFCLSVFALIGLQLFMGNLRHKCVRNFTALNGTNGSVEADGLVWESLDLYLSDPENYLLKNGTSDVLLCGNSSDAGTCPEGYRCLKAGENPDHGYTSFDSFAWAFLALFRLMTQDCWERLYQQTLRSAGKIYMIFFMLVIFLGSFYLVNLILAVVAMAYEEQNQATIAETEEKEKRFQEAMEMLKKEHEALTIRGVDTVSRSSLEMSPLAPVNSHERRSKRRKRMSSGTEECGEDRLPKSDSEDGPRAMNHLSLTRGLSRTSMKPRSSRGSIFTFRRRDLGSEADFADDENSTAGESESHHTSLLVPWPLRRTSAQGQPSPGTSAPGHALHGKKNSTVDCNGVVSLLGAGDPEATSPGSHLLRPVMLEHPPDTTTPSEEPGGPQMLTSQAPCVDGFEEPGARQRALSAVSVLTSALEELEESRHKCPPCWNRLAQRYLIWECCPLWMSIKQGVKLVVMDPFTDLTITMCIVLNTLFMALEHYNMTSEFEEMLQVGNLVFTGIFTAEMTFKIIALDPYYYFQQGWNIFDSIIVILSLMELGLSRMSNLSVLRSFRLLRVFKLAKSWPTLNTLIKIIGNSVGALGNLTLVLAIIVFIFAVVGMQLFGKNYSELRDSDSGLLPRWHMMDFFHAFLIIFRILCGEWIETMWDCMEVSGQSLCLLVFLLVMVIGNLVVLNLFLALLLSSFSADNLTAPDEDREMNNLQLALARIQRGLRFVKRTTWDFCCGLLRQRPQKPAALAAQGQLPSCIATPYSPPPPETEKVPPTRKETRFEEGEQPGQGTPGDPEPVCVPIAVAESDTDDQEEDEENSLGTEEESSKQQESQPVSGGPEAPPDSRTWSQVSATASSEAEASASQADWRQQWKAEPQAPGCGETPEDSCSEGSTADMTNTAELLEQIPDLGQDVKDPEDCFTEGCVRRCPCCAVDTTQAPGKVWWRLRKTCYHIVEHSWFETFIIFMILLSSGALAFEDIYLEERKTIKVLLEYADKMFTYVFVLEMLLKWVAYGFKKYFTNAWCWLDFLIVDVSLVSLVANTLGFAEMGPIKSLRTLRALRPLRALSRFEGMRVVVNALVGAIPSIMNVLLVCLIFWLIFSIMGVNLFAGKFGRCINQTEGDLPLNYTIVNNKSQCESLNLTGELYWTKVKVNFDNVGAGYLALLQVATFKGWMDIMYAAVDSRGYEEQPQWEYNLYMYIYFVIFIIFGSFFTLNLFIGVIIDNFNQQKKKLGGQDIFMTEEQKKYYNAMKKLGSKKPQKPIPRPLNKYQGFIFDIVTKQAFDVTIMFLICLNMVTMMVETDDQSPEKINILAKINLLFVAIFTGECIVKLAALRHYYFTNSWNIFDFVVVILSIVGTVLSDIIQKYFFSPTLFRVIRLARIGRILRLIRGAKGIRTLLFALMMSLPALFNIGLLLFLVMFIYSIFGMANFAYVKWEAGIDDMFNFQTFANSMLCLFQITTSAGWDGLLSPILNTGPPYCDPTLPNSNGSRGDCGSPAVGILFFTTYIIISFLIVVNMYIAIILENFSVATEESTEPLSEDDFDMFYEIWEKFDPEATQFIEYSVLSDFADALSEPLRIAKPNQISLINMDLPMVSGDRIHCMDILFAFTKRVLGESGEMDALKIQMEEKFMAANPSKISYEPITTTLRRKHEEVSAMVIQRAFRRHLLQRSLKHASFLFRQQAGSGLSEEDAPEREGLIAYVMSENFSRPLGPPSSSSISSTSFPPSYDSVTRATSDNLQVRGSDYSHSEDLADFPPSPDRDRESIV

Ratio (Homo sapiens): 1.1
IC50 [3]: 233 nM
Compound: OC(c1cccnc1-c1cc(Cl)cc(Cl)c1)C(c1cccnc1)c1ccccn1 (mixture of isomers)
IC50 [1]: > 30000 nM

Stability [4]: Unstable
Drug metabolism [5]: Metabolite_Detected
Drug metabolism [6]: Metabolite_Detected
Compound: CN(C)C(=O)c1cccc(-c2ccc(F)cc2CC(c2cccnc2)c2cccnc2)c1

Ratio (Homo sapiens): 6.8
inhibition at 10 µM (KCNQ1/KCNE1 (IKs) [2]): 10%
IC50 [3]: 84 nM
Compound: OC(Cc1cccnc1-c1cc(Cl)cc(Cl)c1)(c1cccnc1)c1cccnc1
IC50 [1]: > 30000 nM

Ratio (Homo sapiens): 3.4
inhibition at 10 µM (KCNQ1/KCNE1 (IKs) [2]): 20%
IC50 [3]: 153 nM
Compound: Nc1cccc(C(c2cccnc2)C(O)c2cccnc2-c2cc(Cl)cc(Cl)c2)n1 (mixture of isomers)
IC50 [1]: > 30000 nM

Ratio (Homo sapiens): 0.9
inhibition at 10 µM (KCNQ1/KCNE1 (IKs) [2]): 47%
IC50 [3]: 136 nM
Compound: N#Cc1cccc(-c2cc(F)ccc2CC(c2cccnc2)c2cccnc2)c1
IC50 [1]: 10200 nM

Ratio (Homo sapiens): 7
inhibition at 10 µM (KCNQ1/KCNE1 (IKs) [2]): -14%
IC50 [3]: 290 nM
Compound: O[C@@H](c1cccnc1-c1cccc(C(F)(F)F)c1)C(c1cccnc1)c1cccnc1
IC50 [1]: > 30000 nM

The remaining lines, values behind:

Compound: OC(c1cccnc1-c1ccccc1Cl)C(c1cccnc1)c1cccnc1 (stereo unspecified)
Ratio (Homo sapiens): 28
IC50 [1]: > 30000 nM
inhibition at 10 µM (KCNQ1/KCNE1 (IKs) [2]): -0.5%

Compound: CC(=O)NC(c1ccccc1-c1cc(Cl)cc(Cl)c1)C(c1cccnc1)c1cccnc1 (stereo unspecified)
Ratio (Homo sapiens): 51
IC50 [1]: > 30000 nM
inhibition at 10 µM (KCNQ1/KCNE1 (IKs) [2]): 0.1%
IC50 [3]: 148 nM

Compound: CS(=O)(=O)Nc1cccc([C@H](c2ccc(F)cc2)C(c2cccnc2)c2cccnc2)n1
IC50 [1]: > 30000 nM
IC50 [7]: 790 nM
EC10 (Canis familiaris [8]): 31 nM
inhibition (INH) [9]: Not Active
Stability [4]: Stable
IC50 [10]: 11 nM
IC50 [11]: 2300 nM
IC50 [12]: 110000 nM
Activity (Canis familiaris [13]): 6 to 7 µM
IC50 [3]: 9 nM
Selectivity Index (Canis familiaris [14]): 210
Ratio IC50 [15]: 70

Compound: OC(Cc1cccnc1-c1cccc(C(F)(F)F)c1)(c1cccnc1F)c1cccnc1F
Stability [4]: Stable
inhibition at 10 µM (KCNQ1/KCNE1 (IKs) [2]): 16%
IC50 [3]: 195 nM

Compound: O[C@@H](c1cccnc1-c1cc(Cl)cc(Cl)c1)C(c1cccnc1)c1cccnc1
Ratio (Homo sapiens): 30
fraction unbound [16]: 0.21
IC50 [1]: > 30000 nM
EC10 (Canis familiaris [8]): 14 nM
clearance [17]: 16.7 mL/min/kg
Activity (Canis familiaris [18]): Non-Toxic
Activity (Canis familiaris [19]): Non-Toxic
inhibition (INH) [9]: Not Active
bioavailability [20]: 21%
bioavailability [21]: 34%
Stability [4]: Unstable
bioavailability [22]: 93%
Activity (Canis familiaris [23]): Non-Toxic
IC50 [10]: 11 nM
IC50 [11]: 8300 nM
fraction unbound [24]: 0.08
Vd [25]: 0.81 L/kg
clearance [26]: 14.3 mL/min/kg
Vd [27]: 0.99 L/kg
half-life [28]: 1 h
clearance [29]: 3.7 mL/min/kg
Activity (Canis familiaris [30]): Active
IC50 [12]: 128000 nM
inhibition at 30 µM (KCNQ1/KCNE1 (IKs) [31]): 7%
half-life [32]: 2.6 h
Activity (Canis familiaris [13]): > 25 µM
inhibition at 10 µM (KCNQ1/KCNE1 (IKs) [2]): 5.7%
Vd [33]: 1.59 L/kg
Activity (Canis familiaris [34]): Non-Toxic
Activity (Canis familiaris [35]): Non-Toxic
IC50 [3]: 29 to 2920 nM
Activity (Canis familiaris [36]): Non-Toxic
Selectivity Index (Canis familiaris [14]): >1800
Activity (Canis familiaris [37]): Non-Toxic
Ratio IC50 [15]: >3000
fraction unbound [38]: 0.16
half-life [39]: 1.6 h
